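In this assay, cells in 96-well plates receive the compound at five concentrations for 48 hours. Endpoints are linearly interpolated between the surrounding concentrations. At the GI50, growth is halved. Definition used: TGI = concentration required for complete inhibition of growth.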
Legend:
Assay in all cases: DTP human tumour cell line panel, 48 h
MOLT-4 leukemia = tested on: MOLT-4 leukemia
SN12C renal = tested on: SN12C renal
KM12 colon = tested on: KM12 colon
MDA-N = tested on: MDA-N
SF-268 CNS = tested on: SF-268 CNS
CAKI-1 renal = tested on: CAKI-1 renal
MDA-MB-231 breast = tested on: MDA-MB-231 breast
EKVX NSCLC = tested on: EKVX NSCLC
IGROV1 ovarian = tested on: IGROV1 ovarian
SNB-75 CNS = tested on: SNB-75 CNS

SMILES | TGI (MOLT-4 leukemia) [µM] | TGI (SN12C renal) [µM] | TGI (KM12 colon) [µM] | TGI (MDA-N) [µM] | TGI (SF-268 CNS) [µM] | TGI (CAKI-1 renal) [µM] | TGI (MDA-MB-231 breast) [µM] | TGI (EKVX NSCLC) [µM] | TGI (IGROV1 ovarian) [µM] | TGI (SNB-75 CNS) [µM] | GI50 (MOLT-4 leukemia) [µM] | GI50 (SN12C renal) [µM] | GI50 (KM12 colon) [µM] | GI50 (SNB-75 CNS) [µM] | GI50 (SF-268 CNS) [µM] | GI50 (CAKI-1 renal) [µM] | GI50 (MDA-MB-231 breast) [µM] | GI50 (EKVX NSCLC) [µM]
C=C1OC(c2ccccc2NC)=NC12CCCCC2 | > 100 | > 100 | > 100 | > 100 | > 100 | > 100 | > 100 | > 100 | > 100 | – | – | – | – | – | – | – | – | –
CN(C)c1ccc(/C=C(\NC(=O)c2ccccc2)c2nn(C)c(=O)o2)cc1 | > 100 | > 100 | > 100 | > 100 | > 100 | > 100 | > 100 | > 100 | > 100 | 46.8 | – | – | – | – | – | – | – | –
Cc1cc(S(=O)(=O)/N=C(/C(=C=[N-])C#N)[n+]2ccc(N(C)C)cc2)c(SCC(=O)O)cc1Cl | > 100 | > 100 | > 100 | > 100 | > 100 | > 100 | > 100 | > 100 | > 100 | – | – | – | – | – | – | – | – | –
CN(C)CCNC(=O)c1cc(Cl)cc2ccc(-c3ccccc3)nc12 | 2.92 | 12.9 | 22.2 | – | 19.2 | 8.56 | – | 21.5 | 14.2 | 14 | – | – | – | – | – | – | – | –
NCCCCNCCCNC(=O)c1nc(-c2nc(CCN)sc2Cl)sc1Cl | > 100 | > 100 | > 100 | – | 25.4 | > 100 | – | > 100 | > 100 | > 100 | – | – | – | – | – | – | – | –
O=C1NC2CCCCC2N=C1CC(=O)c1ccc(Br)cc1 (stereo unspecified) | > 100 | > 100 | > 100 | > 100 | > 100 | > 100 | 35.7 | 93.8 | > 100 | – | – | – | – | – | – | – | – | –
Cc1cc(C)nc(NS(=O)(=O)c2ccc(Nc3c4ccccc4nc4c(C(=O)N5CCN(CCOS(C)(=O)=O)CC5)cccc34)cc2)n1 | > 100 | > 100 | > 100 | – | > 100 | > 100 | – | – | > 100 | > 100 | – | – | – | – | – | – | – | –
COc1ccccc1CN=C1Nc2ccncc2S(=O)(=O)N1c1ccccc1 | > 100 | > 100 | > 100 | – | – | > 100 | – | > 100 | > 100 | – | – | – | – | – | – | – | – | –
NC(=O)c1csc(C2(O)COC(CO)C2O)n1 (stereo unspecified) | – | > 100 | > 100 | > 100 | > 100 | > 100 | > 100 | > 100 | > 100 | > 100 | – | – | – | – | – | – | – | –
O=c1cc(-c2ccncc2)[nH]c2cc3c(cc12)OCO3 | > 100 | > 100 | > 100 | > 100 | > 100 | – | > 100 | > 100 | > 100 | > 100 | – | – | – | – | – | – | – | –
O=C(CCc1cc(O)cc(O)c1)NCCCNC(=O)CCc1cc(O)cc(O)c1 | > 100 | > 100 | > 100 | > 100 | > 100 | > 100 | > 100 | > 100 | > 100 | – | – | – | – | – | – | – | – | –
CO[C@H]1SC[C@H](OC(C)=O)[C@H](OC(C)=O)[C@H]1OC(C)=O | > 100 | > 100 | > 100 | > 100 | > 100 | > 100 | > 100 | > 100 | > 100 | – | – | – | – | – | – | – | – | –
CCOc1ccc(Nc2nc(N)nc(N)c2N)cc1 | > 100 | – | 73.5 | 13.3 | 31.1 | 70.3 | > 100 | > 100 | 28.6 | 70.5 | – | – | – | – | – | – | – | –
O=C(O)c1cccc2cccc(-c3cccc4cccc(C(=O)O)c34)c12 | – | > 100 | > 100 | > 100 | > 100 | > 100 | > 100 | > 100 | > 100 | > 100 | – | – | – | – | – | – | – | –
O=c1c(Cc2ccc(Cl)cc2)nnc2sc(-c3ccc(-c4ccc(F)c(Cl)c4)o3)nn12 | > 100 | > 100 | > 100 | > 100 | > 100 | > 100 | > 100 | > 100 | > 100 | – | – | – | – | – | – | – | – | –
CCC(CO)Nc1nc(NCc2ccccc2)c2ncn(C(C)C)c2n1 (stereo unspecified) | – | > 100 | 36.3 | > 100 | 40.4 | > 82.5 | > 94.5 | 49.5 | > 100 | 26.8 | – | – | – | – | – | – | – | –
CC[C@H](Nc1nc(C)nc(N)c1C#N)c1nc2cccc(NCc3ccc(C(=O)NO)cc3)c2c(=O)n1-c1ccccc1 | 5.82 | 3.92 | 3.45 | – | 3.53 | 3.68 | 3.36 | 3.21 | – | 7.27 | 1.36 | 1.65 | 1.81 | 1.73 | 1.63 | 1.76 | 1.4 | 1.56
COC(=O)C1C(C(=O)OC)C2(OC(c3ccc(Cl)cc3)=CC2=O)C12OC(c1ccc(Cl)cc1)=CC2=O (stereo unspecified) | 49.2 | 52.8 | – | 47.3 | 73.5 | 59 | 78.6 | 54.9 | 47.7 | – | – | – | – | – | – | – | – | –
COC(=O)C1=C(C(=O)OC)SC(=CC#CC=C2SC(C(=O)OC)=C(C(=O)OC)S2)S1 | > 100 | > 52.5 | > 100 | – | > 60.1 | > 68.3 | – | > 100 | 45.8 | 19.3 | – | – | – | – | – | – | – | –
CCCCSc1nsc(N(C(=O)c2ccccc2)C(=O)c2ccccc2)n1 | 59.5 | > 100 | > 100 | > 100 | > 100 | > 100 | – | 77.4 | > 100 | 73.8 | – | – | – | – | – | – | – | –
N#C/C(C(=O)Nc1ccc(Cl)cc1)=C(/N)N1CCCC1 | > 100 | > 100 | > 100 | > 100 | – | > 100 | – | > 100 | > 100 | > 100 | – | – | – | – | – | – | – | –
CSc1nc(NC(C)C)c2c(n1)Sc1nc3ccccc3n1N=C2 | > 100 | 35.4 | 60.9 | > 100 | > 100 | > 100 | 30.2 | > 100 | > 100 | – | – | – | – | – | – | – | – | –
